Data from patent publication US6737383B1, “Herbicidal oxadiazolidines” (priority 1999, dated 2004).

Assays:
bedstraw = assay: Test B pre/postemergence bedstraw; assay type: in vivo, Galium aparine
Procedure, shortened: (§1)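 Response is a visual 0-to-10 score relative to untreated plants, where 0 means no effect and 10 means complete control, taken twelve to sixteen days after application. Treatments went onto soil at planting and onto foliage of 1- to 4-leaf plants, using a surfactant-containing non-phytotoxic solvent.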

blackgrass = assay: Test B pre/postemergence blackgrass; assay type: in vivo, Alopecurus myosuroides
Procedure, shortened: as §1

surinam grass = assay: Test B pre/postemergence surinam grass; assay type: in vivo, Brachiaria decumbens
Procedure, shortened: as §1

cocklebur = assay: Test B pre/postemergence cocklebur; assay type: in vivo, Xanthium strumarium
Procedure, shortened: as §1

corn = assay: Test B pre/postemergence corn; assay type: in vivo, Zea mays
Procedure, shortened: as §1

crabgrass = assay: Test B pre/postemergence crabgrass; assay type: in vivo, Digitaria sanguinalis
Procedure, shortened: as §1

giant foxtail = assay: Test B pre/postemergence giant foxtail; assay type: in vivo, Setaria faberii
Procedure, shortened: as §1

rape = assay: Test B pre/postemergence rape; assay type: in vivo, Brassica napus
Procedure, shortened: as §1

soybean = assay: Test B pre/postemergence soybean; assay type: in vivo, Glycine max
Procedure, shortened: as §1

sugar beet = assay: Test B pre/postemergence sugar beet; assay type: in vivo, Beta vulgaris
Procedure, shortened: as §1

velvetleaf = assay: Test B pre/postemergence velvetleaf; assay type: in vivo, Abutilon theophrasti
Procedure, shortened: as §1

wheat = assay: Test B pre/postemergence wheat; assay type: in vivo, Triticum aestivum
Procedure, shortened: as §1

purple nutsedge = assay: Test B pre/postemergence purple nutsedge; assay type: in vivo, Cyperus rotundus
Procedure, shortened: as §1

smallflower flatsedge = assay: Test B flood test smallflower flatsedge; assay type: in vivo, Cyperus difformis
Procedure, shortened: (§2)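 Plants were grown to the 2-leaf stage before treatment with test chemical, then held in a greenhouse for twelve to sixteen days. Injury was visually rated against untreated controls on a 0–10 scale, where 0 is no effect and 10 is complete control.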

duck salad = assay: Test B flood test duck salad; assay type: in vivo, Heteranthera limosa
Procedure, shortened: as §2

bamyardgrass = assay: Test B flood test barnyardgrass; assay type: in vivo, Echinochloa crus-galli
Procedure, shortened: as §2

[1] = Postemergence, Rate 62 g/ha, scale of 0 to 10, 0 is no effect, 10 is complete control
[2] = Postemergence, Rate 125 g/ha, scale 0 to 10, 0 is no effect, 10 is complete control
[3] = Postemergence, Rate 500 g/ha, scale 0 to 10, 0 is no effect, 10 is complete control
[4] = Preemergence, Rate 62 g/ha, scale 0 to 10 (0 no effect, 10 complete control)
[5] = Preemergence, Rate 125 g/ha, scale 0 to 10, 0 is no effect, 10 is complete control
[6] = Preemergence, Rate 500 g/ha, scale of 0 to 10 where 0 is no effect and 10 is complete control
[7] = Rate 250 g/ha, Postemergence, scale of 0 to 10 where 0 is no effect and 10 is complete control
[8] = Rate 62 g/ha, flood test species, Pre-emergence, visual evaluation after twelve to sixteen days
[9] = Rate 125 g/ha, under heading Pre-emergence, flood test species, visual evaluation after twelve to sixteen days
[10] = Rate 250 g/ha, Pre-emergence (flood test species), scale 0 to 10, 0 is no effect, 10 is complete control
[11] = Rate 500 g/ha, Pre-emergence section of Table B, 0 to 10 scale (0 no effect, 10 complete control)

CCC=CCn1c(=O)on(C(=O)N(c2ccc(Cl)cc2)C(C)C)c1=O [Compound 552]
Bedstraw plant response rating (bedstraw; [1]): 2
Bedstraw plant response rating (bedstraw; [2]): 5
Plant response rating, Bedstraw (bedstraw; [3]): 10
Bedstraw plant response rating (bedstraw; [4]): 0
Bedstraw plant response rating (bedstraw; [5]): 0
Bedstraw plant response rating (0 to 10 scale) (bedstraw; Preemergence, Rate 250 g/ha): 0
Bedstraw plant response rating (bedstraw; [6]): 8
Plant response rating, Bedstraw (bedstraw; [7]): 10
Blackgrass plant response rating (blackgrass; [1]): 0
Blackgrass plant response rating (blackgrass; [2]): 0
Plant response rating, Blackgrass (blackgrass; [3]): 7
Blackgrass plant response rating (blackgrass; [4]): 0
Blackgrass plant response rating (blackgrass; [5]): 0
Blackgrass plant response rating (0 to 10 scale) (blackgrass; Preemergence, Rate 250 g/ha): 0
Blackgrass plant response rating (blackgrass; [6]): 8
Plant response rating, Blackgrass (blackgrass; [7]): 0
B. signalgrass plant response rating (surinam grass; [1]): 0
B. signalgrass plant response rating (surinam grass; [2]): 0
Plant response rating, B. signalgrass (surinam grass; [3]): 0
B. signalgrass plant response rating (surinam grass; [4]): 4
B. signalgrass plant response rating (surinam grass; [5]): 8
B. signalgrass plant response rating (surinam grass; [6]): 9
Plant response rating, B. signalgrass (surinam grass; [7]): 0
Cocklebur plant response rating (cocklebur; [1]): 0
Cocklebur plant response rating (cocklebur; [2]): 0
Plant response rating, Cocklebur (cocklebur; [3]): 4
Cocklebur plant response rating (cocklebur; [4]): 0
Cocklebur plant response rating (cocklebur; [5]): 0
Cocklebur plant response rating (0 to 10 scale) (cocklebur; Preemergence, Rate 250 g/ha): 0
Cocklebur plant response rating (cocklebur; [6]): 0
Plant response rating, Cocklebur (cocklebur; [7]): 2
Corn plant response rating (corn; [1]): 0
Corn plant response rating (corn; [2]): 0
Plant response rating, Corn (corn; [3]): 0
Corn plant response rating (corn; [4]): 0
Corn plant response rating (corn; [5]): 0
Corn plant response rating (0 to 10 scale) (corn; Preemergence, Rate 250 g/ha): 0
Corn plant response rating (corn; [6]): 0
Plant response rating, Corn (corn; [7]): 0
Crabgrass plant response rating (crabgrass; [1]): 3
Crabgrass plant response rating (crabgrass; [2]): 9
Plant response rating, Crabgrass (crabgrass; [3]): 9
Crabgrass plant response rating (crabgrass; [4]): 9
Crabgrass plant response rating (crabgrass; [5]): 9
Crabgrass plant response rating (0 to 10 scale) (crabgrass; Preemergence, Rate 250 g/ha): 8
Crabgrass plant response rating (crabgrass; [6]): 10
Giant foxtail plant response rating (giant foxtail; [1]): 0
Giant foxtail plant response rating (giant foxtail; [2]): 3
Plant response rating, Giant foxtail (giant foxtail; [3]): 7
Giant foxtail plant response rating (giant foxtail; [4]): 9
Giant foxtail plant response rating (giant foxtail; [5]): 10
Giant foxtail plant response rating (0 to 10 scale) (giant foxtail; Preemergence, Rate 250 g/ha): 10
Giant foxtail plant response rating (giant foxtail; [6]): 10
Plant response rating, Giant foxtail (giant foxtail; [7]): 3
Rape plant response rating (rape; [1]): 2
Rape plant response rating (rape; [2]): 6
Plant response rating, Rape (rape; [3]): 7
Rape plant response rating (rape; [4]): 0
Rape plant response rating (rape; [5]): 0
Rape plant response rating (0 to 10 scale) (rape; Preemergence, Rate 250 g/ha): 0
Rape plant response rating (rape; [6]): 0
Plant response rating, Rape (rape; [7]): 4
Soybean plant response rating (soybean; [1]): 2
Plant response rating, Soybean (soybean; [3]): 3
Soybean plant response rating (soybean; [4]): 0
Soybean plant response rating (soybean; [5]): 0
Soybean plant response rating (0 to 10 scale) (soybean; Preemergence, Rate 250 g/ha): 0
Soybean plant response rating (soybean; [6]): 0
Plant response rating, Soybean (soybean; [7]): 3
Sugarbeets plant response rating (sugar beet; [1]): 0
Plant response rating, Sugarbeets (sugar beet; [3]): 7
Sugarbeets plant response rating (sugar beet; [4]): 0
Sugarbeets plant response rating (sugar beet; [5]): 0
Sugarbeets plant response rating (0 to 10 scale) (sugar beet; Preemergence, Rate 250 g/ha): 0
Sugarbeets plant response rating (sugar beet; [6]): 5
Plant response rating, Sugarbeets (sugar beet; [7]): 3
Velvetleaf plant response rating (velvetleaf; [1]): 0
Plant response rating, Velvetleaf (velvetleaf; [3]): 3
Velvetleaf plant response rating (velvetleaf; [4]): 0
Velvetleaf plant response rating (velvetleaf; [5]): 0
Velvetleaf plant response rating (0 to 10 scale) (velvetleaf; Preemergence, Rate 250 g/ha): 0
Velvetleaf plant response rating (velvetleaf; [6]): 0
Plant response rating, Velvetleaf (velvetleaf; [7]): 2
Wheat plant response rating (wheat; [1]): 0
Plant response rating, Wheat (wheat; [3]): 3
Wheat plant response rating (wheat; [4]): 0
Wheat plant response rating (wheat; [5]): 0
Wheat plant response rating (0 to 10 scale) (wheat; Preemergence, Rate 250 g/ha): 0
Wheat plant response rating (wheat; [6]): 4
Plant response rating, Wheat (wheat; [7]): 0
Nutsedge plant response rating (purple nutsedge; [1]): 0
Nutsedge plant response rating (purple nutsedge; [2]): 0
Plant response rating, Nutsedge (purple nutsedge; [3]): 0
Nutsedge plant response rating (purple nutsedge; [4]): 0
Nutsedge plant response rating (purple nutsedge; [5]): 0
Nutsedge plant response rating (0 to 10 scale) (purple nutsedge; Preemergence, Rate 250 g/ha): 0
Nutsedge plant response rating (purple nutsedge; [6]): 0
Plant response rating, Nutsedge (purple nutsedge; [7]): 0
Plant response rating, S. Flatsedge (0 to 10 scale, 0 is no effect, 10 is complete control) (smallflower flatsedge; [8]): 0
S. Flatsedge plant response rating (0 to 10 scale, 0 is no effect, 10 is complete control) (smallflower flatsedge; [9]): 0
S. Flatsedge plant response rating (smallflower flatsedge; [10]): 0
S. Flatsedge plant response rating (smallflower flatsedge; [11]): 0
Plant response rating, Ducksalad (0 to 10 scale, 0 is no effect, 10 is complete control) (duck salad; [8]): 0
Ducksalad plant response rating (0 to 10 scale, 0 is no effect, 10 is complete control) (duck salad; [9]): 0
Ducksalad plant response rating (duck salad; [10]): 0
Ducksalad plant response rating (duck salad; [11]): 0
Plant response rating, Barnyardgrass (0 to 10 scale, 0 is no effect, 10 is complete control) (bamyardgrass; [8]): 0
Barnyardgrass plant response rating (0 to 10 scale, 0 is no effect, 10 is complete control) (bamyardgrass; [9]): 0
Barnyardgrass plant response rating (bamyardgrass; [10]): 0
Barnyardgrass plant response rating (bamyardgrass; [11]): 0
